Test results from ChEMBL document CHEMBL1201862, “PubChem BioAssay data set” (2004).
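The compound was tested at five concentrations on cells cultured in 96-well plates, with a 48-hour exposure period. GI50 = concentration required for 50% inhibition of growth.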 Activity calls are given as the source filed them. No stated cut-off is given here; in the data, active = GI50 up to about 1.1 µM and inactive = higher.

Columns and labels:
Assay in all cases: growth of human tumour cells (NCI), 48 h
DMS-114 = tested on: DMS-114
DMS-273 = tested on: DMS-273
HOP-18 = tested on: HOP-18
KM-20L2 = tested on: KM-20L2
LXFL 529 = tested on: LXFL 529
M19-MEL = tested on: M19-MEL
RXF 631 = tested on: RXF 631
SNB-78 = tested on: SNB-78
XF498 = tested on: XF498

Compound	GI50 (DMS-114)	GI50 (DMS-273)	GI50 (HOP-18)	GI50 (KM-20L2)	GI50 (LXFL 529)	GI50 (M19-MEL)	GI50 (RXF 631)	GI50 (SNB-78)	GI50 (XF498)
[O-]c1c2c(nn1-c1ccccc1)c1ccccc1c[n+]2Cc1ccccc1	> 100 µM (inactive)	> 100 µM (inactive)	> 100 µM (inactive)	> 100 µM (inactive)	> 100 µM (inactive)	> 100 µM (inactive)	> 100 µM (inactive)	> 100 µM (inactive)	> 100 µM (inactive)
Oc1c(C(Nc2cccc3cccnc23)c2ccccc2)ccc2cccnc12 (stereo not given)	2.65 µM (inactive)	5.16 µM (inactive)	4.78 µM (inactive)	3.77 µM (inactive)	4.13 µM (inactive)	5.53 µM (inactive)			
C[N+]1(CCNP(=S)(NCC[N+]2(C)Cc3c(ccc4c3OCO4)C3C2c2cc4c(cc2C[C@@H]3O)OCO4)NCC[N+]2(C)Cc3c(ccc4c3OCO4)C3C2c2cc4c(cc2C[C@@H]3O)OCO4)Cc2c(ccc3c2OCO3)C2C1c1cc3c(cc1C[C@H]2O)OCO3 (stereo not given in full)		< 0.00191 µM (active)	< 0.00191 µM (active)	< 0.00191 µM (active)	< 0.00191 µM (active)	< 0.00191 µM (active)		< 0.00191 µM (active)	< 0.00191 µM (active)
c1ccc(OC2=NC3=S(S2)SC(Oc2ccccc2)=N3)cc1	19.9 µM (inactive)	25.8 µM (inactive)		22.3 µM (inactive)		17.8 µM (inactive)	25.1 µM (inactive)	20.5 µM (inactive)	15.7 µM (inactive)
COC(=O)C1=C(C(=O)OC)C23CC1C1C(C(=O)OC)=C(C(=O)OC)C12C1C=CC3C2C(=O)OC(=O)C21 (stereo not given)	26.6 µM (inactive)	36.6 µM (inactive)		> 100 µM (inactive)	39.6 µM (inactive)	50.9 µM (inactive)	71.6 µM (inactive)	24.2 µM (inactive)	45.9 µM (inactive)
CC(=O)Nc1ccc(C(=O)NN2C(=O)C(Cl)C2c2ccccc2)cc1 (stereo not given)		> 100 µM (inactive)		> 100 µM (inactive)	> 100 µM (inactive)	> 100 µM (inactive)		> 100 µM (inactive)	
CC(N)Cc1cccc(C(F)(F)F)c1 (stereo not given)	> 100 µM (inactive)	> 100 µM (inactive)	> 100 µM (inactive)	> 100 µM (inactive)	> 100 µM (inactive)	> 100 µM (inactive)	> 100 µM (inactive)	> 100 µM (inactive)	
CN(C)CCNC(=O)c1cccc2c(Nc3ccc(S(N)(=O)=O)cc3)c3ccccc3nc12	0.461 µM (active)	0.783 µM (active)	2.71 µM (inactive)	2.71 µM (inactive)	0.333 µM (active)		1.4 µM (inactive)	1.82 µM (inactive)	0.209 µM (active)
COc1ccc(CNc2nc3ccc(C(F)(F)F)cc3nc2-c2ccccc2)cc1OC		35.1 µM (inactive)	> 100 µM (inactive)	47.6 µM (inactive)	43.4 µM (inactive)	> 100 µM (inactive)	16.7 µM (inactive)	> 100 µM (inactive)	13.2 µM (inactive)
CSC(C1c2ccccc2N(c2ccc(C)cc2)c2[nH]c(=O)n(C)c(=O)c21)S(=O)(=O)c1ccc(C)cc1 (stereo not given)	> 100 µM (inactive)	> 100 µM (inactive)		> 100 µM (inactive)	> 100 µM (inactive)	> 100 µM (inactive)		> 100 µM (inactive)	> 100 µM (inactive)
C[C@@]12[Se]c3ccccc3[C@]1(C)[Se]c1ccccc12	2.12 µM (inactive)	3.61 µM (inactive)	> 100 µM (inactive)	> 100 µM (inactive)	> 100 µM (inactive)	5.68 µM (inactive)			
CCC(C)(O)c1cn(-c2ccc(S(=O)(=O)O)cc2)nn1 (stereo not given)	> 100 µM (inactive)	> 100 µM (inactive)	> 100 µM (inactive)	> 100 µM (inactive)	> 100 µM (inactive)	> 100 µM (inactive)	> 100 µM (inactive)	> 100 µM (inactive)	> 100 µM (inactive)
Cn1c2ccccc2c2cc(-c3ccccc3)c3c(c21)C(=O)C=CC3=O	9.38 µM (inactive)	19.7 µM (inactive)			6.68 µM (inactive)	20.1 µM (inactive)	30.3 µM (inactive)	> 42.1 µM (inactive)	17.8 µM (inactive)
CCCCCCCCCCCCCCCCCC(CCCCCCCCCCCCCCCCC)OP(=O)(O)O	> 100 µM (inactive)	> 100 µM (inactive)	> 100 µM (inactive)	> 100 µM (inactive)	> 100 µM (inactive)	> 100 µM (inactive)		> 100 µM (inactive)	
O=C(/C=C/c1ccccc1)CC(=O)CCC(=O)Nc1ccc(Cl)cc1	57 µM (inactive)	52.7 µM (inactive)	> 100 µM (inactive)	9.73 µM (inactive)	6.75 µM (inactive)	71 µM (inactive)		> 100 µM (inactive)	
Cc1ccc(NC(=O)CCc2cc(C(C)(C)C)nc(S)n2)cc1C	> 100 µM (inactive)	> 100 µM (inactive)	> 100 µM (inactive)	> 100 µM (inactive)	> 100 µM (inactive)			> 100 µM (inactive)	> 100 µM (inactive)
C=CCSC[C@H](NC(=O)COc1ccccc1)C(=O)NC(C(=O)OCc1ccc([N+](=O)[O-])cc1)=C(C)C	45.3 µM (inactive)	50.4 µM (inactive)	> 100 µM (inactive)	> 100 µM (inactive)	36.1 µM (inactive)	32.1 µM (inactive)	90.8 µM (inactive)	63.2 µM (inactive)	
Cc1cc(NCCCCCCNc2cc(C)nc3cc(N(C)C)ccc23)c2ccc(N(C)C)cc2n1		3.64 µM (inactive)				27.7 µM (inactive)	> 100 µM (inactive)		13.7 µM (inactive)
COC(=O)c1cc2ccccc2c2nc3ccccc3c(Cl)c12	> 100 µM (inactive)	> 100 µM (inactive)		11.4 µM (inactive)	> 100 µM (inactive)	> 100 µM (inactive)	> 100 µM (inactive)		> 100 µM (inactive)
CC(O)CCCOC(c1ccccc1)(c1ccccc1)c1ccccc1 (stereo not given)	13.2 µM (inactive)			10.4 µM (inactive)	14.7 µM (inactive)	17 µM (inactive)		14.7 µM (inactive)	14.7 µM (inactive)
CC1=CC[C@@H](C(C)(C)O)C[C@@H]1O	> 5000 µM (inactive)			> 5000 µM (inactive)	> 5000 µM (inactive)	> 5000 µM (inactive)	> 5000 µM (inactive)	> 5000 µM (inactive)	> 5000 µM (inactive)
C=C(C)C(O)CCC1(C)C=Cc2c(c(C)cc3c2[nH]c2ccccc23)O1 (stereo not given)	11.6 µM (inactive)			3.99 µM (inactive)	8.05 µM (inactive)	13.2 µM (inactive)		8.77 µM (inactive)	6.67 µM (inactive)
Cc1ccc2c(c1)c(=O)c1c(NCCN(C)C)ccc3nnn2c31	5.26 µM (inactive)		9.93 µM (inactive)	3.03 µM (inactive)	3.48 µM (inactive)	6.21 µM (inactive)		6.22 µM (inactive)	
